Consider eight molecules from patent US20250154144A1 (CHILDREN'S HOSPITAL MEDICAL CENTER, priority 2021, published 2025).

The target in assay [1] is T1, IRAK4 (Homo sapiens, UniProt Q9NWZ3).
T1 sequence (Q9NWZ3 1-460): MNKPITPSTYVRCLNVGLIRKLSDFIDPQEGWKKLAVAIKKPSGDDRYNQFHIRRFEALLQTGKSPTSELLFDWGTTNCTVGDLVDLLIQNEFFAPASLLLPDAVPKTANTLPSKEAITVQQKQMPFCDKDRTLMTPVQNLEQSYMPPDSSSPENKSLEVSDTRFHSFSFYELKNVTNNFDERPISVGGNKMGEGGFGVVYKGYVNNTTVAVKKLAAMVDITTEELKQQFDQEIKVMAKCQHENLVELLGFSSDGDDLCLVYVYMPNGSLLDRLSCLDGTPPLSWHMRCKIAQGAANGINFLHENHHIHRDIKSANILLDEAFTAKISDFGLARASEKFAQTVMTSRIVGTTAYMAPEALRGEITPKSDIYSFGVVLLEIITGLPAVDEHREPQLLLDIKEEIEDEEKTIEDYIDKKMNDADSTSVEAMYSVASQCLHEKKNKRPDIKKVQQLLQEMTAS
The assay can be described thus: RBC HotSpot Kinase Assay, IRAK4. The settings on record: IRAK4 IC50.

For assay [2], the target named is T2, FLT3 (Homo sapiens, UniProt P36888).
T2 sequence (P36888 27-993): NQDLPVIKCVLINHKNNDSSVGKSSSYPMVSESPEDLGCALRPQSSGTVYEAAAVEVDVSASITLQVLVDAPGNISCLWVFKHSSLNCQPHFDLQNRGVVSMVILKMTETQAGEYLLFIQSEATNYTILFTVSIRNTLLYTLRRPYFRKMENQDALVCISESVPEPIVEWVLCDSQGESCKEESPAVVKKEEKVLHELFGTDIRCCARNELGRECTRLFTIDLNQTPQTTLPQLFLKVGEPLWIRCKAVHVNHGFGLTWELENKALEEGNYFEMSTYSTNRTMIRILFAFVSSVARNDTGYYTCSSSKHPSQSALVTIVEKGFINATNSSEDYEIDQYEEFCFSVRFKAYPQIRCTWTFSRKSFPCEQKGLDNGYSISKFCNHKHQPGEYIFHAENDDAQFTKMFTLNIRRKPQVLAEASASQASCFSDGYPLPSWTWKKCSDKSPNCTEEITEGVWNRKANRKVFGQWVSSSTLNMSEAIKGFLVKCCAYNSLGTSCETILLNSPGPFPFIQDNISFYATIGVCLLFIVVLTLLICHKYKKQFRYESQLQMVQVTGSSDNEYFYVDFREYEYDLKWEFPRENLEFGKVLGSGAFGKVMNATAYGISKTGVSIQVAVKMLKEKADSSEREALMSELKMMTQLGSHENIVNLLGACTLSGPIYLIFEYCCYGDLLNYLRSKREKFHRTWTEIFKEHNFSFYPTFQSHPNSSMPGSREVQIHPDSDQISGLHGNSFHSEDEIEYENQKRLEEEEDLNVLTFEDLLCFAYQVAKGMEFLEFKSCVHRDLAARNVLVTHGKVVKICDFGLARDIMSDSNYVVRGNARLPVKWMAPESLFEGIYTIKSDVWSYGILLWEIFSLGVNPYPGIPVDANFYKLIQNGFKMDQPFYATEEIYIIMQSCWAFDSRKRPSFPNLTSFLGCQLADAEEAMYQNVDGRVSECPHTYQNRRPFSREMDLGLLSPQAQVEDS
Kind of assay: Reaction Biology NanoBRET target engagement assay in HEK-293 cells, FLT3. For orientation: BRET reads energy transfer from a luciferase to a nearby fluorophore.

Assay [3] concerns the target T1, IRAK4. Kind of assay: DiscoverX KINOMEscan competition binding, IRAK4. Also on record: purchased RBC (Reaction Biology) HotSpot assay.
The target of assay [4] is T2, FLT3. The assay can be described thus: DiscoverX KINOMEscan competition binding, FLT3. Also on record: using full-length kinases in the presence of cellular concentrations of ATP in live, uncompromised cells.
For assay [5], the target named is T3, FLT3 R834Q (Homo sapiens, UniProt P36888, R834Q).
T3 construct: purchased DiscoverX (KINOMEscan)
T3 sequence (P36888 27-993 R834Q): T2 sequence (P36888 27-993) with R808Q
Kind of assay: DiscoverX KINOMEscan competition binding, FLT3 R834Q.

[6] abbreviates: NanoBRET FLT3 IC50, HEK-293 cells.

Numbering of substitutions follows the chain as printed. Like-named read-outs stand apart in the source and are kept apart here. Some results are limits rather than exact numbers.

In general, IC50 refers to the concentration needed to halve the response being measured. Low readings indicate greater potency, high ones weaker potency. Turning to `COc1cc2ncc(-c3ccnc(N[C@@H]4CCCNC4)n3)n2nc1C1CC1` [Compound 50, (R)-4-(6-cyclopropyl-7-methoxyimidazo[1,2-b]pyridazin-3-yl)-N-(piperidin-3-yl)pyrimidin-2-amine], the IC50 in assay [1] is 4 nM. This lies in the single-digit nanomolar range.

A word on the Kd: it is the free concentration of one partner at which half of the binding sites on the other are occupied at equilibrium, for simple one-to-one binding. On to `F[C@H]1CCNC[C@@H]1Nc1cncc(-c2cnc3cc(OC4CC4)ccn23)n1` [Compound 12, 6-(7-cyclopropoxyimidazo[1,2-a]pyridin-3-yl)-N-((3S,4S)-4-fluoropiperidin-3-yl)pyrazin-2-amine], for which the IC50 in assay [2] (setting [6]) came out at 177 nM; in assay [1], 2 nM. Further, the Kd is 0.81 nM in assay [3], 1.9 nM in assay [4] and 18 nM in assay [5].

For `COc1cc2ncc(-c3ccnc(N[C@H]4CNCC[C@@H]4F)n3)n2nc1C1CC1` [Compound 51, 4-(6-cyclopropyl-7-methoxyimidazo[1,2-b]pyridazin-3-yl)-N-((3S,4S)-4-fluoropiperidin-3-yl)pyrimidin-2-amine], the IC50 in assay [2] (setting [6]) was found to be 9 nM; in assay [1], 0.6 nM. For the same molecule, the values for the Kd in assay [3], in assay [4] and in assay [5] were 0.57 nM, 0.22 nM and 1.1 nM, respectively.

Consider `COc1cc2ncc(-c3cncc(N[C@H]4CNCC[C@@H]4F)n3)n2nc1C1CC1` [Compound 24, 6-(6-cyclopropyl-7-methoxyimidazo[1,2-b]pyridazin-3-yl)-N-((3S,4S)-4-fluoropiperidin-3-yl)pyrazin-2-amine], for which the IC50 in assay [2] (setting [6]) was 19 nM; in assay [1], 0.7 nM. For the same molecule, the Kd in assay [3] came out at 0.22 nM; in assay [4] it was 0.19 nM; in assay [5], 1.8 nM.

`COc1cc2ncc(-c3ccnc(N[C@@H]4CCCNC4)n3)n2cc1C(C)(C)O` [Compound 44, (R)-2-(7-methoxy-3-(2-(piperidin-3-ylamino)pyrimidin-4-yl)imidazo[1,2-a]pyridin-6-yl)propan-2-ol]: the IC50 in assay [2] (setting [6]) is 18 nM; in assay [1], < 0.5 nM. Also, the Kd in assay [3] worked out at 0.072 nM; in assay [4] it was 0.28 nM; in assay [5], 1.4 nM.

Turning to `COc1cc2ncc(-c3cncc(N[C@H]4CNC[C@@H]4F)n3)n2nc1C1CC1` [Compound 22, 6-(6-cyclopropyl-7-methoxyimidazo[1,2-b]pyridazin-3-yl)-N-((3S,4S)-4-fluoropyrrolidin-3-yl)pyrazin-2-amine], the IC50 in assay [2] came to 322 nM; in assay [1], 1 nM. The Kd came out at 0.84 nM in assay [3], 1.8 nM in assay [4] and 9.3 nM in assay [5].

In the case of `CC(O)(c1cn2c(-c3ccnc(N[C@H]4CNCC[C@@H]4F)n3)cnc2cn1)C(F)(F)F` (single isomer, unassigned) [Compound 72], the IC50 in assay [2] (setting [6]) turned out to be 992 nM; in assay [1], 0.7 nM. Further, the results for the Kd in assay [3], in assay [4] and in assay [5] were 0.38 nM, 5.2 nM and 14 nM, respectively.

Take `COc1cc2ncc(-c3ccnc(N[C@H]4CNC[C@@H]4F)n3)n2nc1C1CC1` [Compound 49, 4-(6-cyclopropyl-7-methoxyimidazo[1,2-b]pyridazin-3-yl)-N-((3S,4S)-4-fluoropyrrolidin-3-yl)pyrimidin-2-amine]: the Kd in assay [3] came to 0.56 nM; in assay [4] it was 0.26 nM; in assay [5], 1.4 nM. For the same molecule, in assay [1], the IC50 was 1 nM.
